Experimental data: patent US8802711B2, “TRPV1 antagonists” (AbbVie Inc., priority 2011, dated 2014)

Assays:
[1] = molecular target: T1, human TRPV1 receptor (hTRPV1) (Homo sapiens (Human), UniProt Q8NER1); assay: Capsaicin activation assay (FLIPR intracellular Ca2+); type: cell-based; settings: Table 1; inhibition of capsaicin-induced intracellular Ca2+ increase, HEK293 cells expressing human TRPV1; read-out: hTRPV1 cap IC50
Procedure: Dulbecco's modified Eagle medium (D-MEM) (with 4.5 mg/mL glucose) and fetal bovine serum were obtained from Hyclone Laboratories, Inc. (Logan, Utah). Dulbecco's phosphate-buffered saline (D-PBS) (with 1 mg/mL glucose and 3.6 mg/l Na pyruvate, without phenol red), L-glutamine, hygromycin B, and Lipofectamine® were obtained from Life Technologies (Grand Island, N.Y.). G418 sulfate was obtained from Calbiochem-Novabiochem Corp. (San Diego, Calif.). Capsaicin (8-methyl-N-vanillyl-6-nonenamide) was obtained from Sigma-Aldrich, Co. (St. Louis, Mo.). Fluo-4 AM (N-[4-[6-[(acetyloxy)methoxy]-2,7-difluoro-3-oxo-3H-xanthen-9-yl]-2-[2-[2-[bis[2-[(acetyloxy)methoxy]-2-oxyethyl]amino]-5-methyl phenoxy]ethoxy]phenyl]-N-[2-[(acetyloxy)methoxy]-2-oxyethyl]-glycine, (acetyloxy)methyl ester) was purchased from Molecular Probes (Eugene, Oreg.). […]
The functional activity of compounds at the TRPV1 receptor was determined by measurement of intracellular Ca^2+ levels ([Ca^2+]i) using the Fluorescence Imaging Plate Reader (FLIPR)^TETRA®. All compounds were tested over a 12-point one-third-log concentration range. Compound stocks, 10 mM, were prepared in DMSO, and diluted serially across a 384-well plate using a Bravo BenchCel workstation (Agilent Technologies, Santa Clara, Calif.). A stock concentration of capsaicin (10 mM) was made in DMSO, and diluted in D-PBS to a final concentration of 200 nM (4×). On the day prior to the experiment, recombinant HEK293 cells that stably express human TRPV1 were removed from tissue culture flasks and plated in growth medium into black-walled clear-bottom 384-well Biocoat™ poly-D-lysine assay plates (BD Biosciences, Bedford, Mass.) using a Multidrop® dispenser (ThermoScientific, Waltham, Mass.). On the day of the experiment, growth medium was removed, and the no-wash FLIPR® Calcium-4 dye (λEX=470-495 nm, λEM=515-575 nm; Molecular Devices, Sunnyvale, Calif.) was added to each well using the Multidrop® dispenser. Cells were incubated for 90-120 minutes in the dark at room temperature. Test compounds were added to the cells 3 minutes prior to the addition of 200 nM capsaicin (4×), and the final assay volume was 80 μL. Fluorescence readings were made at 1 to 5 second intervals over the course of the experimental run. The peak increase in relative fluorescence units (minus baseline) was calculated, and expressed as a percentage of the 50 nM capsaicin (control) response.

[2] = molecular target: T1, human TRPV1 receptor (hTRPV1); assay: Acid activation assay (pH 5.0, FLIPR intracellular Ca2+); type: cell-based; settings: Table 1; 37.5 μM antagonist, percentage of the maximal pH 5.0-induced response remaining; read-out: hTRPV1 H+ (max % remain)
Procedure: Dulbecco's modified Eagle's medium (DMEM) with 4.5 mg/mL D-glucose, fetal bovine serum, L-glutamine, and 2-morpholinoethanesulfonic acid (MES) were purchased from Sigma-Aldrich Co. (St. Louis, Mo.). Dulbecco's phosphate-buffered saline (DPBS) with Ca^2+, Mg^2+, and 1 mg/mL D-glucose (pH 7.4), Geneticin®, 0.25% trypsin-1 mM EDTA, and penicillin-streptomycin were purchased from Invitrogen Corp. (Carlsbad, Calif.). The FLIPR® Calcium 4 assay kit was purchased from Molecular Devices (Sunnyvale, Calif.).
The cDNAs for the human TRPV1 receptor (hTRPV1) were isolated by reverse transcriptase-polymerase chain reaction (RT-PCR) from human small intestine poly A+RNA supplied by Clontech (Palo Alto, Calif.) using primers designed surrounding the initiation and termination codons identical to the published sequences (Hayes et al. Pain 2000, 88, 205-215). The resulting cDNA PCR products were subcloned into pCIneo mammalian expression vector (Promega) and fully sequenced using fluorescent dye-terminator reagents (Prism, Perkin-Elmer Applied Biosystems Division) and a Perkin-Elmer Applied Biosystems Model 373 DNA sequencer or Model 310 genetic analyzer. Expression plasmids encoding the hTRPV1 cDNA were transfected individually into 1321N1 human astrocytoma cells using Lipofectamine. Forty-eight hours after transfection, the neomycin-resistant cells were selected with growth medium containing 800 μg/mL Geneticin (Gibco BRL). Surviving individual colonies were isolated and screened for TRPV1 receptor activity. Cells expressing recombinant homomeric TRPV1 receptors were maintained at 37° C. in DMEM containing 4 mM L-glutamine, 300 μg/mL G418 (Cal-biochem) and 10% fetal bovine serum under a humidified 5% CO2 atmosphere.
The functional activity of compounds at the TRPV1 receptor was determined by measurement of intracellular Ca^2+ levels ([Ca^2+]i) using the Fluorescence Imaging Plate Reader (FLIPR)^TETRA®. All compounds were tested over a 12-point one-half-log concentration range. Compound stocks, 10 mM, were prepared in DMSO, and diluted serially across a 384-well plate using a Bravo BenchCel workstation (Agilent Technologies, Santa Clara, Calif.).
On the day of the experiment growth medium was removed, and the no-wash FLIPR® Calcium-4 dye (λEX=470-495 nm, λEM=515-575 nm) was added to each well using the Multidrop® dispenser. Cells were incubated for 90-120 minutes in the dark at 25° C. Test compounds were dissolved in DMSO, and plates were prepared using an Agilent Bravo workstation (Agilent Technologies Inc., Santa Clara, Calif.). Compounds were added to the cells 3 minutes prior to the addition of a pH 5.0 solution. Reagents were delivered at a rate of 40 μL/sec, and the final assay volume was 80 μL. Acidic pH solutions were prepared by titration of DPBS/MES with 1 N HCl. The intensity of the fluorescence was captured and digitally transferred to an interfaced PC.

T1 sequence (Q8NER1 whole entry): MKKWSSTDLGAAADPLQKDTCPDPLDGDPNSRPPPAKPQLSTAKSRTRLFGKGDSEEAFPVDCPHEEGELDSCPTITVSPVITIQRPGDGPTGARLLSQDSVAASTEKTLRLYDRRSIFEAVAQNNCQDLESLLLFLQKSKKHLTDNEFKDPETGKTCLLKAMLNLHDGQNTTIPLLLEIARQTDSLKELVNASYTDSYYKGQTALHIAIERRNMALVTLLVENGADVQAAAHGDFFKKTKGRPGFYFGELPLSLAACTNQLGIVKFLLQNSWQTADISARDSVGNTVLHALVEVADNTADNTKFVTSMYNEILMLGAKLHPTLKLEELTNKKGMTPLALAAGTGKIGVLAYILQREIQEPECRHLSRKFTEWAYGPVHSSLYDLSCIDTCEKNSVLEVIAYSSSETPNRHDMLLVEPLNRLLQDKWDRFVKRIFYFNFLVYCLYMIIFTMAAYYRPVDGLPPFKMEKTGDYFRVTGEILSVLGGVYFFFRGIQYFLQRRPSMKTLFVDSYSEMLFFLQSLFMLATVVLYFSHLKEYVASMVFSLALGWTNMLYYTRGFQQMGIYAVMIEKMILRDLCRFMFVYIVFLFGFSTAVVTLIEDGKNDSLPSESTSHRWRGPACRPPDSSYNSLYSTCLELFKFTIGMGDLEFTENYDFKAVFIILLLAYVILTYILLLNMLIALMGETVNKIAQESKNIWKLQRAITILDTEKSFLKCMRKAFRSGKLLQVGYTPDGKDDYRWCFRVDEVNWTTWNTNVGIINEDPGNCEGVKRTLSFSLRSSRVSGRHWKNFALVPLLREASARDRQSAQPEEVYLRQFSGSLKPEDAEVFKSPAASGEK

Row | IC50 [1] [nM] | remaining activity at 37.5 µM [2] [%] | Structure (SMILES)
1 | 69 | 46 | CN1C(=O)CCc2c(NC(=O)N[C@@H]3CC[C@@H](c4cccc(F)c4)C3)cccc21 [Example 97, 1-[(1R,3R)-3-(3-fluorophenyl)cyclopentyl]-3-(1-methyl-2-oxo-1,2,3,4-tetrahydroquinolin-5-yl)urea]
2 | 248 | 17 | O=C(Nc1cccc2c1C[C@@H](O)C2)N[C@H]1CC[C@@H](c2cccc(F)c2)C1 [Example 87, 1-[(1S,3R)-3-(3-fluorophenyl)cyclopentyl]-3-[(2S)-2-hydroxy-2,3-dihydro-1H-inden-4-yl]urea]
3 | 373 | 25 | C[C@H]1Oc2c(NC(=O)N[C@@H]3CC[C@@H](c4ccccc4)C3)cccc2NC1=O [Example 17, 1-[(2R)-2-methyl-3-oxo-3,4-dihydro-2H-1,4-benzoxazin-8-yl]-3-[(1R,3R)-3-phenylcyclopentyl]urea]
4 | 138 | 88 | O=C(Nc1cccc2c1C[C@@H](O)C2)N[C@H]1CC[C@@H](c2ccccc2)C1 [Example 23, 1-[(2S)-2-hydroxy-2,3-dihydro-1H-inden-4-yl]-3-[(1S,3R)-3-phenylcyclopentyl]urea]
5 | 1790 | 57 | Cc1cc2c(NC(=O)N[C@H]3CC[C@@H](c4nc(C)cs4)C3)c(F)ccc2cn1 [Example 135, 1-(6-fluoro-3-methylisoquinolin-5-yl)-3-[(1S,3R)-3-(4-methyl-1,3-thiazol-2-yl)cyclopentyl]urea]
6 | 80 | 0 | O=C(Nc1cccc2c1C[C@@H](O)C2)N[C@@H]1CC[C@@H](c2cccc(F)c2)C1 [Example 86, 1-[(1R,3R)-3-(3-fluorophenyl)cyclopentyl]-3-[(2S)-2-hydroxy-2,3-dihydro-1H-inden-4-yl]urea]
7 | 164 | 11 | C[C@@]1(c2ccccc2)CC[C@@H](NC(=O)Nc2cccc3[nH]ncc23)C1 [Example 73, 1-(1H-indazol-4-yl)-3-[(1R,3R)-3-methyl-3-phenylcyclopentyl]urea]
8 | 290 | 3 | CN(C)c1ccc([C@H]2CCC(NC(=O)Nc3cccc4[nH]ncc34)C2)cc1 (stereo partly drawn) [Example 47, 1-{(3S)-3-[4-(dimethylamino)phenyl]cyclopentyl}-3-(1H-indazol-4-yl)urea]
9 | > 37500 | 82 | Cc1nc(N)cc2c(NC(=O)N[C@@H]3CC[C@H](c4ccccc4)C3)cccc12 [Example 141, 1-(3-amino-1-methylisoquinolin-5-yl)-3-[(1R,3S)-3-phenylcyclopentyl]urea]
10 | 48 | 41 | O=C(Nc1cccc2[nH]ncc12)N[C@@H]1CC[C@@H](c2cccc(F)c2)C1 [Example 68, 1-[(1R,3R)-3-(3-fluorophenyl)cyclopentyl]-3-(1H-indazol-4-yl)urea]
11 | 70 | 81 | O=C1CCc2ccc(NC(=O)N[C@@H]3CC[C@H](c4ccccc4)C3)cc2N1 [Example 5, 1-(2-oxo-1,2,3,4-tetrahydroquinolin-7-yl)-3-[(1R,3S)-3-phenylcyclopentyl]urea]
12 | 11 | 18 | O=C(Nc1cccc2[nH]ncc12)N[C@H]1CC[C@@H](c2ccccc2F)C1 [Example 67, 1-[(1S,3R)-3-(2-fluorophenyl)cyclopentyl]-3-(1H-indazol-4-yl)urea]
13 | 6 | 1 | O=C(Nc1cccc2c1C[C@@H](O)CC2)N[C@H]1CC[C@@H](c2ccccc2)C1 [Compound B, 1-[(7S)-7-hydroxy-5,6,7,8-tetrahydronaphthalen-1-yl]-3-[(1S,3R)-3-phenylcyclopentyl]urea, reference compound]
14 | 156 | 36 | Cc1cc2c(NC(=O)N[C@H]3CC[C@H](c4nc(C)cs4)C3)c(F)ccc2cn1 [Example 134, 1-(6-fluoro-3-methylisoquinolin-5-yl)-3-[(1S,3S)-3-(4-methyl-1,3-thiazol-2-yl)cyclopentyl]urea]
15 | 5.6 | 22 | Cc1cc2c(NC(=O)N[C@@H]3CC[C@H](c4ccccc4F)C3)c(F)ccc2cn1 [Example 70, 1-(6-fluoro-3-methylisoquinolin-5-yl)-3-[(1R,3S)-3-(2-fluorophenyl)cyclopentyl]urea]
16 | 106 | 93 | O=C(Nc1cccc2c1C[C@H](O)C2)N[C@@H]1CC[C@H](c2ccccc2)C1 [Example 1, 1-[(2R)-2-hydroxy-2,3-dihydro-1H-inden-4-yl]-3-[(1R,3S)-3-phenylcyclopentyl]urea]
17 | 58 | 34 | CN1C(=O)CCc2c(NC(=O)N[C@H]3CC[C@@H](c4ccccc4)C3)cccc21 [Example 95, 1-(1-methyl-2-oxo-1,2,3,4-tetrahydroquinolin-5-yl)-3-[(1S,3R)-3-phenylcyclopentyl]urea]
18 | 1050 | 26 | O=C(Nc1cccc2[nH]ncc12)NC1CCCC(c2ccc(C(F)(F)F)cc2)C1 (centres unmarked) [Example 30, 1-(1H-indazol-4-yl)-3-{3-[4-(trifluoromethyl)phenyl]cyclohexyl}urea]
19 | > 37500 | 76 | CN1C(=O)CCc2ccc(NC(=O)N[C@@H]3CC[C@@H](c4ccccc4F)C3)cc21 [Example 109, 1-[(1R,3R)-3-(2-fluorophenyl)cyclopentyl]-3-(1-methyl-2-oxo-1,2,3,4-tetrahydroquinolin-7-yl)urea]
20 | 70 | 18 | Cn1ncc2c(NC(=O)N[C@@H]3CC[C@@H](c4ccccc4)C3)cccc21 [Example 18, 1-(1-methyl-1H-indazol-4-yl)-3-[(1R,3R)-3-phenylcyclopentyl]urea]
21 | 435 | 79 | O=C(Nc1cccc2c1C[C@H](O)C2)N[C@H]1C[C@H](c2ccccc2)C1 [Example 59, 1-[(2R)-2-hydroxy-2,3-dihydro-1H-inden-4-yl]-3-(trans-3-phenylcyclobutyl)urea]
22 | 11 | 75 | Cn1c(=O)ccc2c(NC(=O)N[C@H]3CC[C@@H](c4cccc(F)c4)C3)cccc21 [Example 79, 1-[(1S,3R)-3-(3-fluorophenyl)cyclopentyl]-3-(1-methyl-2-oxo-1,2-dihydroquinolin-5-yl)urea]
